Data as given in patent US20250197372A1 (priority 2020, published 2025).

Columns and labels:
Type in all cases: biochemical
[1] = biological target: T1, recombinant human GBA (beta-glucocerebrosidase) (Homo sapiens, UniProt P04062); test: Beta-glucocerebrosidase (GBA, glucosylceramidase) assay (4-methylumbelliferyl-beta-D-pyranoside substrate, fluorescence)
T1 sequence (P04062 40-536): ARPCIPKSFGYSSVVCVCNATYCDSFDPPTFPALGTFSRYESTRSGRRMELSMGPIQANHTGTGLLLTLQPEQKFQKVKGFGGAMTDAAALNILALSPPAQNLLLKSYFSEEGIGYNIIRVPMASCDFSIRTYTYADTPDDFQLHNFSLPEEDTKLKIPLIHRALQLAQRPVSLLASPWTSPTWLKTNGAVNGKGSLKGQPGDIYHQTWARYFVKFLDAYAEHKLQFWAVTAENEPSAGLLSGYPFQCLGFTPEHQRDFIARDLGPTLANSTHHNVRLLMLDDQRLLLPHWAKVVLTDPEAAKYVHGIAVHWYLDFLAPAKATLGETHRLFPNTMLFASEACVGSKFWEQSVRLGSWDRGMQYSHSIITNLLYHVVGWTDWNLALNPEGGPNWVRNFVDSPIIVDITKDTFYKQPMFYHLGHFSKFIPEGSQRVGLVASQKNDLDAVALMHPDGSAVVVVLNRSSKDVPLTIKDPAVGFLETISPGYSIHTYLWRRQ
Outline: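 Recombinant human GBA preincubated with compound dilutions 60 min at 37 °C, then 4-methylumbelliferyl-beta-D-pyranoside added for 60 min at 37 °C. Stopped at pH 10 (glycine/NaOH); fluorescence ex 365/em 440 nm. IC50 from 4-PL fit of inhibition relative to untreated enzyme.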

[2] = biological target: recombinant human GAA (acid alpha-glucosidase) (Homo sapiens, UniProt P10253); test: Acid alpha-glucosidase (GAA) assay (4-methylumbelliferyl-alpha-D-pyranoside substrate, fluorescence)
Outline: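 Recombinant human enzyme preincubated 60 min at 37 °C with compound dilutions, then 4-methylumbelliferyl-alpha-D-pyranoside substrate added for 20 min at 37 °C. Stopped with glycine/NaOH pH 10; methylumbelliferone fluorescence (ex 365, em 440 nm) versus untreated enzyme; IC50 by 4-PL fit.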

[3] = biological target: rat maltase (partially purified alpha-glucosidase from intestinal rat powder); test: Intestinal alpha-glucosidase assay, maltose substrate (Glucose GO Kit)
Outline: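 First step: 60 min, 37 °C, compound with partially purified rat intestinal alpha-glucosidase. Next, maltose or sucrose for 30 min at 37 °C, ended at 90 °C for 5 min. Glucose quantified enzymatically; concentration–inhibition data fitted 4-PL for IC50.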

[4] = biological target: T2, recombinant alpha-glucosidase II (murine full-length glucosidase II, alpha and beta subunits, Glu 2) (Mus musculus, UniProt Q8BHN3); test: Alpha-glucosidase II assay (4-methylumbelliferyl-alpha-D-pyranoside substrate, fluorescence); conditions: Glucosidase 2; read-out: Glu2 IC50
T2 construct: made in house; host or cells: HEK-293T cells transduced with BacMam viruses (75% alpha, 25% beta); protein harvested from culture supernatant

[5] = biological target: rat sucrase (partially purified alpha-glucosidase from intestinal rat powder) (Rattus norvegicus, UniProt P23739); test: Intestinal alpha-glucosidase assay, sucrose substrate (Glucose GO Kit)
Outline: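 Partially purified rat intestinal alpha-glucosidase preincubated 60 min at 37 °C with serial compound dilutions, then sucrose substrate added for 30 min at 37 °C. Reaction stopped by 5 min at 90 °C; released glucose detected with Glucose GO kit. IC50 from 4-PL fit of % inhibition vs concentration.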

Chain of rat sucrase (partially purified alpha-glucosidase from intestinal rat powder) (P23739 whole entry): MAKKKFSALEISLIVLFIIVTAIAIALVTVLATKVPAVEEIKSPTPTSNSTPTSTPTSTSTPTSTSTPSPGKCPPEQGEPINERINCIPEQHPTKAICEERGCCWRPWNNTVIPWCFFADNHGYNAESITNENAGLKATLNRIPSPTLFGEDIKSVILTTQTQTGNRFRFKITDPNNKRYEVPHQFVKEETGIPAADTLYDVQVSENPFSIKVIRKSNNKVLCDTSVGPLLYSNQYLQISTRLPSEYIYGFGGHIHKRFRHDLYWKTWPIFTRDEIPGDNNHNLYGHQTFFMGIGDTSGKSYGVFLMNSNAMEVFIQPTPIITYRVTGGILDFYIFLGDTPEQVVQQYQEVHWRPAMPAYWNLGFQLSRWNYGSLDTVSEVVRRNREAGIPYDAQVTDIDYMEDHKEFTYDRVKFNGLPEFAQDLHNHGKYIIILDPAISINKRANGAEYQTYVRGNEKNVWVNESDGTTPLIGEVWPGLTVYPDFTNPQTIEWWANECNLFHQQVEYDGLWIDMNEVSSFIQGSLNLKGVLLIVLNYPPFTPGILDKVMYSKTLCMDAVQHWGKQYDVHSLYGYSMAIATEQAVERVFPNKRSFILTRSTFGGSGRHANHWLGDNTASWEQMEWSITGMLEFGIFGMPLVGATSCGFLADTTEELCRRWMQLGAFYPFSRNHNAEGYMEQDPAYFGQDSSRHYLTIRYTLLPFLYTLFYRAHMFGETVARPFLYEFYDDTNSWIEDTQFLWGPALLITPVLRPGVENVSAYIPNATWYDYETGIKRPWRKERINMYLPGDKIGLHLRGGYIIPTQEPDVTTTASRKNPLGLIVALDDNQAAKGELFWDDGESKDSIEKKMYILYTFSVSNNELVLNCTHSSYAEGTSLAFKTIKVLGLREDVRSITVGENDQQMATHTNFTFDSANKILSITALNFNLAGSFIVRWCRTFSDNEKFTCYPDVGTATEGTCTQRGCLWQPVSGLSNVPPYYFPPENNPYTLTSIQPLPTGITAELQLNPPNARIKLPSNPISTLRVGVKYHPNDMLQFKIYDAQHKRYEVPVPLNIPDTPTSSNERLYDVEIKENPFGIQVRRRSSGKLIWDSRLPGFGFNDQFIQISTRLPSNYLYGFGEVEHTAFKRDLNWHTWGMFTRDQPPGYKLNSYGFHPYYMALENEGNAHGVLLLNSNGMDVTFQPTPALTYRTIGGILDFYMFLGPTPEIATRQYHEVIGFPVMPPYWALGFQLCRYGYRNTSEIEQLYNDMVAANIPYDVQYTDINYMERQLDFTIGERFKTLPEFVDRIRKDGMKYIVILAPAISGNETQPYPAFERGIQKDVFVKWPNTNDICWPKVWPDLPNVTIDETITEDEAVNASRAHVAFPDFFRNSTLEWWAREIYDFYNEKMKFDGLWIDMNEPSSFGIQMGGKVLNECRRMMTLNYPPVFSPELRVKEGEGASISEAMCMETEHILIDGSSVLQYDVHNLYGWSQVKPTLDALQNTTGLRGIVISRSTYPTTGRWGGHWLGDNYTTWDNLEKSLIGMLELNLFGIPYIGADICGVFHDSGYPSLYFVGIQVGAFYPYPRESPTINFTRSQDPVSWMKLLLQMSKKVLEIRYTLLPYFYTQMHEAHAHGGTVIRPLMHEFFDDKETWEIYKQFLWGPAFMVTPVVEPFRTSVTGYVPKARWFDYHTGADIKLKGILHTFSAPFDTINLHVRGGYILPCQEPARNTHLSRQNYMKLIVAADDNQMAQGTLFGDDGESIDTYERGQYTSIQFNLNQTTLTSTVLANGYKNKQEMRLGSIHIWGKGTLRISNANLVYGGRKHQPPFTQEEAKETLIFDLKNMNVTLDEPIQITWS
T2 sequence (O08795 15-521): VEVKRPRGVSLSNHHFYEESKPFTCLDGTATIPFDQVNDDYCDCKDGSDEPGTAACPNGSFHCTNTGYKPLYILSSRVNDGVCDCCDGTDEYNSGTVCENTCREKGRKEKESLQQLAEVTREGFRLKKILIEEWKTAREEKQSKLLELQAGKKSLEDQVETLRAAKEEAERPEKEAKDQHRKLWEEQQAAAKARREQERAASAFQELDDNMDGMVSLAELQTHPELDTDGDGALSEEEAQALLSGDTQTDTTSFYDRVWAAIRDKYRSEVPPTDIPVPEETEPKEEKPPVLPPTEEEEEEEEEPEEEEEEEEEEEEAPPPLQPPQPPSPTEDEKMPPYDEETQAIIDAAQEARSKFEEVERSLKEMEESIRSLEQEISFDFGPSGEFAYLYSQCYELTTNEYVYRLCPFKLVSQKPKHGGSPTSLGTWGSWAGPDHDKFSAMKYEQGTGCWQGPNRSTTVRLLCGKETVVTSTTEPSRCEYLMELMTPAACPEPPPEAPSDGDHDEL
T2 sequence (Q8BHN3 33-944): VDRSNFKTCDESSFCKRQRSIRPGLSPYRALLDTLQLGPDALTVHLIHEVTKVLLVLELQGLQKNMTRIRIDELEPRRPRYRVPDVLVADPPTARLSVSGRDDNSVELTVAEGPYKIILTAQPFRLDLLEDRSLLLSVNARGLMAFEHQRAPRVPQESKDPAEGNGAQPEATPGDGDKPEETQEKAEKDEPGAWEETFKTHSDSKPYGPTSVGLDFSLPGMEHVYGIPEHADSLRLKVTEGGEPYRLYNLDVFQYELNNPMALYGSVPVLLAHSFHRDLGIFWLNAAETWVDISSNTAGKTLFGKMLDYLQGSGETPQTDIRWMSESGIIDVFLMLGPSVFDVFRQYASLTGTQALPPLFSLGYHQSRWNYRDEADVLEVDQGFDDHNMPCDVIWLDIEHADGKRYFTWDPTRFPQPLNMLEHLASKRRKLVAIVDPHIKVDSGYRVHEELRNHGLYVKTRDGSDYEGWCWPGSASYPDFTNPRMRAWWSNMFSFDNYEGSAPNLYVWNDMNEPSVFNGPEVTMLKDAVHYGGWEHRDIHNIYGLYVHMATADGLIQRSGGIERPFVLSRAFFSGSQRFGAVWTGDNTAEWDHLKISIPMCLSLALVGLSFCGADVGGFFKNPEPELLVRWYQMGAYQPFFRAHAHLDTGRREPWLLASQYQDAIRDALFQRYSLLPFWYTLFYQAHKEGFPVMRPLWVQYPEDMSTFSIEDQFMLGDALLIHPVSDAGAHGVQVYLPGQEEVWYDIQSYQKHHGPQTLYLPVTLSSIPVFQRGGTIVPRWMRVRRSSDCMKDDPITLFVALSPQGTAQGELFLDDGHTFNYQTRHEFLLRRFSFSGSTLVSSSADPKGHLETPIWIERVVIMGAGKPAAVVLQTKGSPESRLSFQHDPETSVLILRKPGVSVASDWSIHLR

SMILES | IC50 [1] [nM] | IC50 [2] [nM] | IC50 [3] [nM] | IC50 [4] [nM] | IC50 [5] [nM]
OC[C@@H]1[C@@H](O)[C@H](O)[C@@H](O)CN1Cc1cccc(CNc2ccc(-c3ncccn3)cc2)c1 [Compound 1084, (2R,3R,4R,5S)-2-(hydroxymethyl)-1-{[3-({[4-(pyrimidin-2-yl)phenyl]amino}methyl)phenyl]methyl}piperidine-3,4,5-triol] | > 100000 | 2350 | 95 | 26600 | 44
CS(=O)(=O)c1cc(NCc2ccc(CN3C[C@H](O)[C@@H](O)[C@H](O)[C@H]3CO)cc2)cc(N2CCOCC2)c1 [Compound 1054, (2R,3R,4R,5S)-2-(hydroxymethyl)-1-{[4-({[3-methanesulfonyl-5-(morpholin-4-yl)phenyl]amino}methyl)phenyl]methyl}piperidine-3,4,5-triol] | > 100000 | 371 | 57 | 2200 | 160
COC(=O)c1cc(Cl)cc(NCCc2ccc(CCN3C[C@H](O)[C@@H](O)[C@H](O)[C@H]3CO)cc2)c1 [Compound 1116, methyl 3-chloro-5-{[2-(4-{2-[(2R,3R,4R,5S)-3,4,5-trihydroxy-2-(hydroxymethyl)piperidin-1-yl]ethyl}phenyl)ethyl]amino}benzoate] | 904 | 428 | 162 | < 1 | 1230
OC[C@@H]1[C@@H](O)[C@H](O)[C@@H](O)CN1Cc1cccc(CNc2ccc(-c3ccc[nH]3)cc2)c1 [Compound 1082, (2R,3R,4R,5S)-2-(hydroxymethyl)-1-{[3-({[4-(1H-pyrrol-2-yl)phenyl]amino}methyl)phenyl]methyl}piperidine-3,4,5-triol] | 13800 | 872 | 14 | 5630 | 25
Cc1cc(NCc2ccc(CN3C[C@H](O)[C@@H](O)[C@H](O)[C@H]3CO)cc2)cc(N2CCOCC2)c1 [Compound 1048, (2R,3R,4R,5S)-2-(hydroxymethyl)-1-{[4-({[3-methyl-5-(morpholin-4-yl)phenyl]amino}methyl)phenyl]methyl}piperidine-3,4,5-triol] | > 100000 | 366 | 13 | 550 | 59
Cc1cc(NCc2ccc(CN3C[C@H](O)[C@@H](O)[C@H](O)[C@H]3CO)cc2)cc(-c2ccc[nH]2)c1 [Compound 1051, (2R,3R,4R,5S)-2-(hydroxymethyl)-1-{[4-({[3-methyl-5-(1H-pyrrol-2-yl)phenyl]amino}methyl)phenyl]methyl}piperidine-3,4,5-triol] | 15000 | 291 | < 1 | 213 | < 1
N#Cc1cc(NCc2ccc(CN3C[C@H](O)[C@@H](O)[C@H](O)[C@H]3CO)cc2)cc(N2CCOCC2)c1 [Compound 1060, 3-(morpholin-4-yl)-5-{[(4-{[(2R,3R,4R,5S)-3,4,5-trihydroxy-2-(hydroxymethyl)piperidin-1-yl]methyl}phenyl)methyl]amino}-benzonitrile] | > 100000 | 86 | 9 | 262 | 52
CN(Cc1ccc(CN2C[C@H](O)[C@@H](O)[C@H](O)[C@H]2CO)cc1)c1cc(-c2cccnn2)cc(C2CC2)c1 [Compound 1001, (2R,3R,4R,5S)-1-{[4-({[3-cyclopropyl-5-(pyridazin-3-yl)phenyl](methyl)amino}methyl)phenyl]methyl}-2-(hydroxymethyl)piperidine-3,4,5-triol] | 99700 | 91 | < 1 | 437 | 15
OC[C@@H]1[C@@H](O)[C@H](O)[C@@H](O)CN1Cc1ccc(CNc2ccc(CN3CCCO3)cc2)cc1 [Compound 1092, (2R,3R,4R,5S)-2-(hydroxymethyl)-1-({4-[({4-[(1,2-oxazolidin-2-yl)methyl]phenyl}amino)methyl]phenyl}methyl)piperidine-3,4,5-triol] | 121000 | 786 | 38 | 1780 | 48
[N-]=[N+]=Nc1ccc(NCc2ccc(Cc3ccc(CN4C[C@H](O)[C@@H](O)[C@H](O)[C@H]4CO)cc3)cc2)c([N+](=O)[O-])c1 [Compound 1105, (2R,3R,4R,5S)-1-({4-[(4-{[(4-azido-2-nitrophenyl)amino]methyl}phenyl)methyl]phenyl}methyl)-2-(hydroxymethyl)piperidine-3,4,5-triol] | 9090 | 60 | 6 | 151 | 12
OC[C@@H]1[C@@H](O)[C@H](O)[C@@H](O)CN1CCc1ccc(CCNc2cc(Cl)cc(-c3noc(C4CCC4)n3)c2)cc1 [Compound 1122, (2R,3R,4R,5S)-1-{2-[4-(2-{[3-chloro-5-(5-cyclobutyl-1,2,4-oxadiazol-3-yl)phenyl]amino}ethyl)phenyl]ethyl}-2-(hydroxymethyl)piperidine-3,4,5-triol] | 6 | 558 | 717 | 294 | 1660
OC[C@@H]1[C@@H](O)[C@H](O)[C@@H](O)CN1CCCCCCNc1cc(C2CC2)cc(N2CCOCC2)c1 [Compound 1006, (2R,3R,4R,5S)-1-(6-{[3-cyclopropyl-5-(morpholin-4-yl)phenyl]amino}hexyl)-2-(hydroxymethyl)piperidine-3,4,5-triol] | 618 | 124 | 10 | 1 | 116
O=[N+]([O-])c1cc(C2=COCCO2)ccc1NCc1ccc(CN2C[C@H](O)[C@@H](O)[C@H](O)[C@H]2CO)cc1 [Compound 1099, (2R,3R,4R,5S)-1-{[4-({[4-(5,6-dihydro-1,4-dioxin-2-yl)-2-nitrophenyl]amino}methyl)phenyl]methyl}-2-(hydroxymethyl)piperidine-3,4,5-triol] | 37100 | < 1 | < 1 | < 1 | < 1
O=[N+]([O-])c1cc(-c2ncc[nH]2)ccc1NCCc1ccc(CCN2C[C@H](O)[C@@H](O)[C@H](O)[C@H]2CO)cc1 [Compound 1078, (2R,3R,4R,5S)-2-(hydroxymethyl)-1-{2-[4-(2-{[4-(1H-imidazol-2-yl)-2-nitrophenyl]amino}ethyl)phenyl]ethyl}piperidine-3,4,5-triol] | 6970 | 343 | 28 | 95 | 506
O=C(O)c1cc(Cl)cc(NCCc2ccc(CCN3C[C@H](O)[C@@H](O)[C@H](O)[C@H]3CO)cc2)c1 [Compound 1117, 3-chloro-5-{[2-(4-{2-[(2R,3R,4R,5S)-3,4,5-trihydroxy-2-(hydroxymethyl)piperidin-1-yl]ethyl}phenyl)ethyl]amino}benzoic acid] | 18100 | 498 | 218 | 139 | 483
Cc1cc(NCc2ccc(CN3C[C@H](O)[C@@H](O)[C@H](O)[C@H]3CO)cc2)cc(C2=COCCO2)c1 [Compound 1050, (2R,3R,4R,5S)-1-{[4-({[3-(5,6-dihydro-1,4-dioxin-2-yl)-5-methylphenyl]amino}methyl)phenyl]methyl}-2-(hydroxymethyl)piperidine-3,4,5-triol] | > 100000 | 278 | < 1 | 3 | 4
N#Cc1cc(NCc2ccc(CN3C[C@H](O)[C@@H](O)[C@H](O)[C@H]3CO)cc2)cc(-c2cccnn2)c1 [Compound 1064, 3-(pyridazin-3-yl)-5-{[(4-{[(2R,3R,4R,5S)-3,4,5-trihydroxy-2-(hydroxymethyl)piperidin-1-yl]methyl}phenyl)methyl]amino}-benzonitrile] | 53700 | 39 | 2 | 2 | 26
N#Cc1cc(NCc2cccc(CN3C[C@H](O)[C@@H](O)[C@H](O)[C@H]3CO)c2)cc(-c2ccc[nH]2)c1 [Compound 1045, 3-(1H-pyrrol-2-yl)-5-{[(3-{[(2R,3R,4R,5S)-3,4,5-trihydroxy-2-(hydroxymethyl)piperidin-1-yl]methyl}phenyl)methyl]amino}benzonitrile] | 60700 | 1960 | < 1 | 7700 | < 1
